From patent US20260263425A1, “USE OF COMPOSITION CONTAINING CANDESARTAN OR AZILSARTAN” (GACHON UNIVERSITY OF INDUSTRY-ACADEMIC COOPERATION …, priority 2023, published 2026) come the findings set out here.

The test system of assay [1] is HepG2 cells. As to the kind of experiment: Intracellular Ca2+ level and lipid accumulation in palmitic acid-treated HepG2 cells (confocal microscopy, fluorescent dyes). In kind it is cell-based, Human. Particulars: for lipid accumulation: palmitic acid-treated HepG2, BODIPY; for fluorescence intensity for intracellular Ca2+: palmitic acid-treated HepG2, Calbryte 630 AM. The procedure:
Subsequently, to determine whether ARBs can regulate intracellular Ca^2+ levels and lipid accumulation in HepG2 cells treated with palmitic acid, the effects of ARBs were evaluated using confocal microscopy and the fluorescent dyes Calbryte 630 AM (for intracellular Ca^2+) and BODIPY (for lipids).
Specifically, for intracellular Ca^2+ concentration and lipid accumulation, HepG2 cells were plated on slide glasses, treated with 0.5 mM palmitic acid for 16 hours, and incubated with 4 μM Fura-2-AM (Teflabs), […] Calbryte 630 AM, or […] BODIPY in PBS for 30 minutes at 37° C. in the dark. The cells were then washed with PBS for 10 minutes. Subsequently, the cells were counterstained with 4,6-diamidino-2-phenylindole (DAPI) to visualize nuclei. After mounting, the stained slides were imaged using a Zeiss LSM 700 or Zeiss LSM 980 laser scanning confocal microscope (Carl Zeiss) and analyzed using ZEN 2010 Software (Carl Zeiss). Intracellular Ca^2+ was quantified from the microscopic images using the NIH ImageJ software (https://imagej.nih.gov/ij/, 1997-2017). […]

Assay [2] deals with AKT PH domain. As to the kind of experiment: Insulin-stimulated membrane localization of AKT PH domain in PMA-treated CHO-IR cells. In kind it is cell-based, Chinese hamster. The procedure: (§1) Specifically, CHO cells or HepG2 cells were transfected with cDNA encoding hAKT PHD (residues 1 to 144) using Lipofectamine (Life Technologies). To monitor the intracellular localization of endogenous AKT, liver sections were antigen activated with 10 mM Tris/HCl (pH 9.0) for 20 minutes, treated with serum-free protein blocking solution (DAKO) for 30 minutes, and permeabilized with 0.5% Tween 20 for 15 minutes. The liver sections were then incubated with anti-AKT PHD antibody (SKB1, #05-591, Sigma-Aldrich) and FITC-conjugated secondary antibody. After mounting, the liver sections were imaged with an LSM 980 laser scanning confocal microscope (Carl Zeiss), and the images were analyzed using ZEN software (Carl Zeiss). Similarly, in phorbol myristate acetate (PMA)-treated Chinese hamster ovary-insulin receptor (CHO-IR) cells, it was confirmed that insulin-stimulated membrane localization of the AKT PH domain was rescued by treatment with azilsartan or candesartan (FIG. 3b).

Assay [3] relates to HepG2 cells. Briefly: Insulin-stimulated phosphorylation of Akt and downstream molecules in palmitic acid-treated HepG2 cells (immunoblot). To be noted: HepG2, 0.5 mM palmitic acid 16 h, ARB 5, 10, 20 μM; dose-dependent. In kind it is cell-based, Human. The procedure:
Tissues and cells were lysed using a modified RIPA buffer (50 mM Tris-HCl pH 7.4, 1% Triton X-100, 150 mM NaCl, 1 mM EDTA; Cell Signaling Technology) freshly supplemented with 1 mM Na3VO4, […], and protease inhibitor cocktail (Complete Mini, Roche). Equal amounts of proteins were separated on 4-12% gels and electrophoretically transferred to polyvinylidene difluoride (PVDF) membranes. Immunoblots were visualized with horseradish peroxidase-conjugated secondary antibodies and enhanced chemiluminescence kits (ECL kits; GE Healthcare Life Sciences) using a charge-coupled device camera (Amersham ImageQuant 800). Specifically, nine FDA-approved ARBs (losartan, eprosartan, fimasartan, irbesartan, olmesartan, telmisartan, valsartan, azilsartan, and candesartan) commonly prescribed for the treatment of hypertension in human patients were administered to HepG2 cells at various concentrations (5 μM, 10 μM, and 20 μM) in combination with 0.5 mM palmitic acid for 16 hours. Then, the insulin-stimulated phosphorylation of the key insulin signaling molecule Akt and its downstream signaling molecules GSK3β and FOXO3 was investigated. The results of Example 1 indicate that azilsartan and candesartan have beneficial off-target effects on insulin signaling and intracellular Ca^2+ homeostasis that are distinct from their known effects as angiotensin receptor blockers. […]

The subject of assay [4] is AKT PH domain. Briefly: Insulin-stimulated membrane localization of AKT PH domain in palmitic acid-treated HepG2 cells. In kind it is cell-based, Human. To be noted: 100 nM insulin 15 min, AKT PH mCherry. The procedure:
One mechanism of insulin resistance is that, in the state of obesity and diabetes, an increase in the concentration of calcium in the cytoplasm leads to calcium binding to PI(3, 4, 5)P3 present in the cell membrane, generating Ca^2+-PI(3, 4, 5)P3, which inhibits binding to the PH domain of AKT and suppresses AKT protein activity, thereby inducing insulin resistance. Accordingly, it was evaluated whether azilsartan and candesartan, which were shown in the above examples to attenuate palmitic acid-induced intracellular Ca^2+ overload, regulate the intracellular localization of the AKT PH domain, which functions as a biosensor for PI(3, 4, 5)P3.
as §1, with “Zeiss).” for “Zeiss). Similarly, in phorbol myristate acetate (PMA)-treated Chinese hamster ovary-insulin receptor (CHO-IR) cells, it was confirmed that insulin-stimulated membrane localization of the AKT PH domain was rescued by treatment with azilsartan or candesartan (FIG. 3b).”
When administering azilsartan or candesartan to cells, the impairment induced by palmitic acid was recovered.

A further assay concerns HFD-fed mice. As to the kind of experiment: Postprandial phosphorylation of AKT and downstream substrates in HFD-fed mice. In kind it is in vivo. Particulars: fasted overnight, re-fed HFD 4 hours. The procedure: Tissues and cells were lysed using a modified RIPA buffer (50 mM Tris-HCl pH 7.4, 1% Triton X-100, 150 mM NaCl, 1 mM EDTA; Cell Signaling Technology) freshly supplemented with 1 mM Na3VO4, […], and protease inhibitor cocktail (Complete Mini, Roche). Equal amounts of proteins were separated on 4-12% gels and electrophoretically transferred to polyvinylidene difluoride (PVDF) membranes. Immunoblots were visualized with horseradish peroxidase-conjugated secondary antibodies and enhanced chemiluminescence kits (ECL kits; GE Healthcare Life Sciences) using a charge-coupled device camera (Amersham ImageQuant 800). To elucidate the role of candesartan on insulin signaling in vivo, mice were fasted overnight and then re-fed an HFD for 4 hours, and postprandial phosphorylation of AKT and its downstream signaling substrates FOXO1A, FOXO3A, GSK3B, and AS160 was measured.

As for `CCOc1nc2cccc(C(=O)O)c2n1Cc1ccc(-c2ccccc2-c2nc(=O)o[nH]2)cc1` [azilsartan], in the assay with HepG2 cells [1], the lipid accumulation entry was “significantly reduced” and the “fluorescence intensity for intracellular Ca2+” value (“fluorescence intensity” for short) is recorded as “significantly reduced”. In the assay with AKT PH domain [2], the “insulin-stimulated membrane localization of the AKT PH domain” value is listed as “rescued”. In addition, the “insulin-stimulated phosphorylation of Akt, GSK3B, and FOXO3” value in the assay with HepG2 cells [3] is on record as “completely restored”. In addition, the “palmitic acid-induced impairment of insulin-stimulated membrane localization of the AKT PH domain” value (“palmitic acid-induced impairment” for short) in the assay with AKT PH domain [4] was “recovered”.

Take `CCOc1nc2cccc(C(=O)O)c2n1Cc1ccc(-c2ccccc2-c2nnn[nH]2)cc1` [candesartan]: in the assay on HFD-fed mice, the “postprandial phosphorylation of AKT, FOXO1A, FOXO3A, GSK3B, and AS160, increase compared to the control group” value is 4- to 10 fold.

As to `CCCCc1ncc(/C=C(\Cc2cccs2)C(=O)O)n1Cc1ccc(C(=O)O)cc1` [eprosartan], in the assay with HepG2 cells [1], the lipid accumulation entry is “did not significantly affect” and the “fluorescence intensity” value was “did not significantly affect”. The “palmitic acid-induced impairment” value with AKT PH domain [4] is listed as “did not rescue”.

`CCCCC1=NC2(CCCC2)C(=O)N1Cc1ccc(-c2ccccc2-c2nnn[nH]2)cc1` [irbesartan]: in the assay on HepG2 cells [1], the lipid accumulation result is on record as “did not significantly affect” and the “fluorescence intensity” value is listed as “did not significantly affect”. In the assay with AKT PH domain [4], the “palmitic acid-induced impairment” value was “did not rescue”.

On to `CCCCc1nc(Cl)c(CO)n1Cc1ccc(-c2ccccc2-c2nn[nH]n2)cc1` [losartan], for which, in the assay on HepG2 cells [1], the lipid accumulation result was “did not significantly affect” and the “fluorescence intensity” value was “did not significantly affect”. In addition, in the assay with AKT PH domain [4], the “palmitic acid-induced impairment” value is given as “did not rescue”.

As for `CCCc1nc2c(C)cc(-c3nc4ccccc4n3C)cc2n1Cc1ccc(-c2ccccc2C(=O)O)cc1` [telmisartan], in the assay with HepG2 cells [1], the lipid accumulation entry was “did not significantly affect” and the “fluorescence intensity” value was “did not significantly affect”. The “palmitic acid-induced impairment” value in the assay on AKT PH domain [4] was “did not rescue”.
